# Reference: US5968907A (priority 1997, dated 1999)
# Tests used:
# [1] = target: heat-labile enterotoxin from E. coli (Escherichia coli, UniProt P0CK94); assay type: binding; settings: at the concentration employed in the assay
# [2] = target: cholera toxin (Vibrio cholerae serotype O1, UniProt P01556); assay: biochemical; settings: read-out: inhibition of binding of cholera toxin to ganglioside GD1b
# Chain of cholera toxin (P01556 22-124 limits assumed): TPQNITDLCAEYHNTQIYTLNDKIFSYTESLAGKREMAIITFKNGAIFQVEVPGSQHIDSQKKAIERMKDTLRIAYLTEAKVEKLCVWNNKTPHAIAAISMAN
# Chain of heat-labile enterotoxin from E. coli (P0CK94 whole entry, looked up): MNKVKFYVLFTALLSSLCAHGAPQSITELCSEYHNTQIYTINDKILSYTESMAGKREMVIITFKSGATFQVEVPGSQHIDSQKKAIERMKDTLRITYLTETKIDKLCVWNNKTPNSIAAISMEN
Compound,inhibition of binding of heat-labile enterotoxin to ganglioside GD1b [1],inhibition at 1000 µg/mL [2] [%]
"OC[C@H]1O[C@@H](SC2CCCC2O)[C@H](O)[C@@H](O)[C@H]1O (stereo partly drawn) [Example A1, 2-Hydroxycyclopent-1-yl 1-Thio-β-D-galactopyranoside]",at least 20%,< 20
"OC[C@H]1O[C@@H](SCC2C3CCC(C3)C2O)[C@H](O)[C@@H](O)[C@H]1O (stereo partly drawn) [Example A4, (3-Hydroxynorborn-2-yl)methyl 1-Thio-β-D-galactopyranoside]",at least 20%,< 20
"OC[C@H]1O[C@@H](SC2CCC(O)C2)[C@H](O)[C@@H](O)[C@H]1O (stereo partly drawn) [Example A7, 3-Hydroxycyclopent-1-yl 1-Thio-β-D-galactopyranoside]",< 20%,< 20
"CC1(C)CCC(S[C@@H]2O[C@H](CO)[C@H](O)[C@H](O)[C@H]2O)CC1N (stereo partly drawn) [Example B11, 3-Amino-4,4-dimethylcyclohex-1-yl 1-Thio-β-D-galactopyranoside]",at least 20%,–
"CC(=O)NC1CCCCC1S[C@@H]1O[C@H](CO)[C@H](O)[C@H](O)[C@H]1O (stereo partly drawn) [Example C2, 2-Acetamidocyclohex-1-yl 1-Thio-β-D-galactopyranoside]",at least 20%,–
"CC(=O)NC1CC(S[C@@H]2O[C@H](CO)[C@H](O)[C@H](O)[C@H]2O)CCC1(C)C (stereo partly drawn) [Example C11, 3-Acetamido-4,4-dimethylcyclohexyl 1-Thio-β-D-galactopyranoside]",at least 20%,–
"O=C(O)c1ccccc1C(=O)NC1CCCCC1S[C@@H]1O[C@H](CO)[C@H](O)[C@H](O)[C@H]1O (stereo partly drawn) [Example D2, 2-(2-Carboxybenzamido)cyclohex-1-yl 1-Thio-β-D-galactopyranoside]",< 20%,–
"O=C(O)c1ccccc1C(=O)NC1C2CCC(C2)C1CS[C@@H]1O[C@H](CO)[C@H](O)[C@H](O)[C@H]1O (stereo partly drawn) [Example D4, [3-(Carboxybenzamido)norborn-2-yl]methyl 1-Thio-β-D-galactopyranoside]",at least 20%,–
"O=C(O)CNC1CCCCC1S[C@@H]1O[C@H](CO)[C@H](O)[C@H](O)[C@H]1O (stereo partly drawn) [Example E2, Nα-[2-(1-Thio-β-D-galactopyranosyl)cyclohex-1-yl]gIycine]",at least 20%,–
"O=C(O)CNC1C2CCC(C2)C1CS[C@@H]1O[C@H](CO)[C@H](O)[C@H](O)[C@H]1O (stereo partly drawn) [Example E4, Nα-[3-((1-Thio-β-D-galactopyranosyl)methyl)norborn-2-yl]glycine]",at least 20%,–
"O=C(O)CNC1CCCC(S[C@@H]2O[C@H](CO)[C@H](O)[C@H](O)[C@H]2O)C1 (stereo partly drawn) [Example E10, Nα-[3-(1-Thio-β-D-galactopyranosyl)cyclohex-1-yl]glycine]",at least 20%,–
"CC1(C)CCC(S[C@@H]2O[C@H](CO)[C@H](O)[C@H](O)[C@H]2O)CC1NCC(=O)O (stereo partly drawn) [Example E11, Nα-[5-(1-Thio-β-D-galactopyranosyl)-2 ,2-dimethylcyclohex-1-yl]glycine]",at least 20%,–
"O=C(O)CCNC1CCCCC1S[C@@H]1O[C@H](CO)[C@H](O)[C@H](O)[C@H]1O (stereo partly drawn) [Example F2, Nβ-[2-(1-Thio-β-D-galactopyranosyl)cyclohex-1-yl]-β-alanine]",at least 20%,–
"CC1(C)CCC(S[C@@H]2O[C@H](CO)[C@H](O)[C@H](O)[C@H]2O)CC1NCCC(=O)O (stereo partly drawn) [Example F11, N-β-[5-(1-Thio-α-D-galactopyranosyl)-2,2-dimethylcyclohex-1-yl]-β-alanine]",at least 20%,–
